The structures appear in SMILES notation. “Also recorded” adds a separate entry of the source.

We go through one compound from patent US6699681B2, “Endothelin converting enzymes and the amyloid β peptide” (Mayo Foundation for Medical Education and Research, priority 2000, dated 2004).

The test system of experiment [1] is Aβ concentration in plasma. The experiment can be described thus: Treatment of guinea pigs with phosphoramidon, plasma Aβ by sandwich ELISA. Type of experiment: in vivo, guinea pig. The settings on record: guinea pigs treated intravenously. The method, then:
Animal experiments were conducted within the United States Department of Agriculture (USDA) and the National Institute of Health (NIH) guidelines for animal use and care. To prevent clotting and to facilitate the collection of plasma, each animal was given 100 USP units/kg heparin sodium salt (Sigma, St. Louis, Mo.) administered intraperitoneally (IP) prior to experimentation. Animals were anesthetized with a single IP injection of 0.9 mg/kg acepromazine maleate (Fermenta, Kansas City, Mo.) combined with 90 mg/kg Ketaset (Fort Dodge Laboratories, Fort Dodge, Iowa). […] During the entire operation, the animal's temperature was periodically monitored and anesthesia maintained by further intraperitoneal injections as necessary. […] Data was obtained from at least 2 animals, with the Aβ in each sample measured at least twice.
Human and guinea pig Aβ40 or Aβ42 was measured in plasma by sandwich ELISA as previously described (Suzuki et al., 1994, Science, 264:1336-1340) using the BAN-50/BA-27 or BAN-50/BC-05 antibody systems, respectively (Takeda; Japan). Hamster Aβ40- or Aβ42-derived from CHO cells was measured using the BNT-77/BA-27 or BNT-77/BC-05 antibody systems, respectively. Aβ concentration in samples was determined by comparison to synthetic Aβ40 or Aβ42 standards (Bachem, Switzerland). […]
For orientation: ELISA stands for enzyme-linked immunosorbent assay.

The test system of a further experiment is H4 neuroglioma cells. The settings on record: reported; cited from earlier work.
The subject of another experiment is H4 cells. The experiment can be described thus: Removal of synthetic Aβ spiked into culture medium of H4 cells. It is filed as cell-based, human. The settings on record: incubated 6 or 24 hrs, presence vs absence of phosphoramidon. The protocol: Human and guinea pig Aβ40 or Aβ42 was measured in plasma by sandwich ELISA as previously described (Suzuki et al., 1994, Science, 264:1336-1340) using the BAN-50/BA-27 or BAN-50/BC-05 antibody systems, respectively (Takeda; Japan). Hamster Aβ40- or Aβ42-derived from CHO cells was measured using the BNT-77/BA-27 or BNT-77/BC-05 antibody systems, respectively. Aβ concentration in samples was determined by comparison to synthetic Aβ40 or Aβ42 standards (Bachem, Switzerland). Data was obtained from triplicate wells. […] Plates were read at 450 nm in a SpectraMax Plus spectrophotometer (Molecular Devices; Sunnyvale, Calif.) and analyzed by SOFTmax® PRO software. Aβ40 or Aβ42 were quantitated by comparison with the values obtained for each synthetic Aβ standard from the same plate. To exclude the possibility that the phosphoramidon-induced effect was due to inhibition of extracellular degradation and/or internalization of Aβ by H4 cells, synthetic Aβ was spiked into the culture medium, incubated for 6 or 24 hrs, and the amount of synthetic Aβ remaining in the medium was determined by sandwich ELISA. […] Intracellular Aβ has not been convincingly detected in H4 cells, presumably due to rapid secretion of the peptide.

Turning to `CC(C)C[C@H](NP(=O)(O)O[C@@H]1O[C@@H](C)[C@H](O)[C@@H](O)[C@H]1O)C(=O)N[C@@H](Cc1c[nH]c2ccccc12)C(=O)O` [phosphoramidon], the “Aβ concentration in the plasma” value in experiment [1] is “dose-dependent, rapid increase”. Also, the “extracellular Aβ concentration” value in the experiment on H4 neuroglioma cells is listed as “significant increase”. For the same compound, the “removal of synthetic Aβ spiked into the culture medium” value in the experiment with H4 cells was “removed equally; also recorded: not affected”.
